These are literature values, as cited in patent US20040082013A1, “Methods for screening for substances which inhibit fp prostanoid receptor interaction with a compound having pgf2alpha activity and methods of treating cancer” (priority 2003, published 2004).

In data set [1] the test system is eyelashes and adjacent hair. Conditions: some patients receiving latanoprost for glaucoma; treated eye, not untreated eye.
Another data set has as its system skin carcinogenesis. Conditions: animal models of skin carcinogenesis.

`CC(C)OC(=O)CCC/C=C\C[C@@H]1[C@@H](CC[C@@H](O)CCc2ccccc2)[C@H](O)C[C@@H]1O` [latanoprost]: the “hair growth side effect” value in data set [1] is “hypertrichosis of the eyelashes and adjacent hair in the treated eye”.

With prostaglandin F2α [PGF2α], in the data set with skin carcinogenesis, the “effect on anti-tumor promoting activity of indomethacin” value is recorded as “reversed the anti-tumor promoting activity of indomethacin” and the “effect on tumor promoting activity of phorbol esters” value is given as “increased the tumor promoting activity of phorbol esters”.
